Reference: article PMC11898701, “Evaluating Therapeutic Efficacy of the Vascular Disrupting Agent OXi8007 Against Kidney Cancer in Mice” (Cancers, 2025)

Tests used:
[1] = system: Renca cells; test: Microtubule disruption and cell morphology in Renca cells; assay type: cell-based, mouse; settings: 2.5 and 5 µM
Description: Renca cells were plated in cell culture-treated 96-well plates (Grenier Bio-One North America Inc., Monroe, NC, USA) at 2000 cells/well and allowed to adhere for 24 h before treatment. Hoechst 33342 (1 μg/mL) in complete RPMI 1640 medium was used to stain the cell nuclei for 15 min at 37 °C. […] The medium was removed to reduce background fluorescence, followed by two wash cycles with fresh medium. Fresh medium containing 25 μM of verapamil hydrochloride was added to the stained cells prior to imaging. Images of the microtubule cytoskeleton and nuclei were collected over 3 h using a Biotek Lionheart microscope ELx800 in fluorescence mode with a 20× objective.

[2] = system: subcutaneous MDA-MB-231 tumors; parameters: method as in earlier work; settings: cited from earlier work
[3] = system: Renca cells; test: Wound (scratch) assay; assay type: cell-based, mouse; settings: ≥ 2.5 µM, over 48 h
Description: Renca cells were plated at a seeding density of approximately 3 × 10^5 cells per well in a 6-well plate and allowed to reach confluency before treatment. A scratch was made with a sterile 10 µL pipette tip in each well before removing the medium and any detached cells. […] Hoechst 33342 was added to each well at a final concentration of 1 µg/mL and incubated for 15 min at 37 °C to stain the cell nuclei. Gen5 version 3.14 software was used for cellular and statistical analysis of the wound closure data.

[4] = system: orthotopic Renca-luc tumors; test: Long-term therapy with OXi8007 and/or cabozantinib; assay type: in vivo, mouse
Description: OXi8007, synthesized by the Pinney Laboratory using published procedures, was dissolved in saline, verified to be in the pH range 7.3 to 7.5, and dosed at 250 mg/kg (IP). Cabozantinib (in PEG400 and ultrapure H2O (Milli-Q)) was administered at 3 mg/kg by oral gavage. Anti-PD-1 (10 mg/kg, Bio X Cell, Lebanon, NH, USA) and anti-CTLA-4 (5 mg/kg, Bio X Cell, Lebanon, NH) solutions were administered (IP) on the day before OXi8007 […].
We evaluated the longitudinal effects of OXi8007 alone and in combination with drugs currently favored for treating kidney cancer. For Renca-luc tumor-bearing mice, BLI was performed at least once a week to estimate tumor size, and mice were weighed weekly to adjust the dose as needed. Two treatment cohorts examined syngeneic orthotopic Renca-luc tumors in male BALB/c mice. Treatment started when the tumors reached about 1 × 10^6 photons/s peak total flux on BLI. The first cohort examined OXi8007 with cabozantinib. Mice were divided into four groups. Mice were assigned to groups as soon as there were sufficient to add the same numbers of animals to each group. The specific assignment was defined using the random number function in Excel. […] The second cohort was treated with CKIs and OXi8007 using four groups: Group 5 (OXi8007 + anti-PD-1 (10 mg/kg) + anti-CTLA-4 (5 mg/kg); n = 4), Group 6 (saline + anti-PD-1+ anti-CTLA-4; n = 3), Group 7 (saline + anti-PD-1; n = 3), and Group 8 (saline + anti-CTLA-4; n = 4). CKI antibodies were administered thrice weekly (M, W, F) for the first two weeks after the first treatment with OXi8007, which was administered twice weekly. […] Initial tumor growth was confirmed by palpation, and the mice were assigned to groups such that the first mouse with a confirmed tumor was assigned to Group 5, next to Group 6, etc., ensuring that all groups had both faster- and slower-growing tumors. […] Tumor size (BLI signal) and mouse body weights were compared using an ANOVA and multiple comparisons at a significance level of p < 0.05. Kaplan–Meier survival curves were compared using a non-parametric log-rank test using SAS software (SAS Institute Inc., SAS Viya for learners 4, Cary, NC, USA).

COc1ccc2c(C(=O)c3cc(OC)c(OC)c(OC)c3)c(-c3ccc(OC)c(OP(=O)(O)O)c3)[nH]c2c1 [OXi8007]
Effect on microtubule structure [1]: rapid progressive loss of microtubule structure
Tumor growth delay [2]: significant tumor growth delay
Wound closure [3]: significantly depressed
Toxicity in adult mice ([4]; 250 mg/kg IP twice weekly up to 7 weeks): no overt toxicity
Body weight at week 7 versus baseline ([4]; Renca-luc BALB/c mice, 250 mg/kg IP twice weekly): significant loss in body weight
Body weight loss versus pre-treatment baseline ([4]; Renca-luc BALB/c mice, OXi8007 alone): ~ 11%
Tumor growth delay (BLI) ([4]; Renca-luc, versus control): no significant growth delay
Overall survival versus control ([4]; Renca-luc, 250 mg/kg IP twice weekly, log-rank p = 0.053): no overall survival benefit
